The source of these data is patent EP1214940B1, “Methods of enhancing the therapeutic activity of NSAIDs and compositions of zwitterionic phospholipids useful therein” (Board of Regents, The University of Texas System, priority 1995, dated 1996).

Where two headings read alike, the source gives them in different places. Marks after values point to notes of the source that are not given here.

In data set [1] the test system is rats. Format: in vivo. The following applies: aspirin 90mg/kg daily intragastric over 2 weeks, (n) rats/group. The protocol:
Rats were treated with ASA over a two week period to investigate the chronic effects of NSAID exposure (in the presence and absence of phospholipids) on hematocrit, gastric mucosal hydrophobicity, and granuloma formation. […] The test solutions (saline, ASA and ASA/Phospholipon 90G complex) were intragastrically administered between 8AM - 9AM daily during the two week study period. In these chronic exposure experiments, ASA was complexed with an equimolar concentration of Phospholipon 90G (purified soya lecithin, prepared and obtained from Nattermann GmbH of Cologne, Germany) instead of DPPC. At the completion of the study period, blood was collected into a capillary tube for the determination of hematocrit and the stomach was excised for contact angle analysis.
Contact angle analysis was performed with the use of a goniometer on excised gastric mucosal tissue, that was lightly blotted and dried, as previously outlined (Hills et al., 1983; Goddard et al., 1987; Goddard et al., 1990). Briefly, this was accomplished by applying a droplet of water (~ 5µl) to the tissue surface, and employing the telescopic eyepiece of the goniometer to measure the maximal angle that is dissected at the triple point, where the solid/liquid/ and air interface meet.

Data set [2] relates to Foreign-Body Granuloma Formation. Nature of the data set: Rat foreign-body granuloma formation (implanted cotton string), two-week daily treatment. Format: in vivo, rats. The conditions noted are these: two weeks, (dry weight of string with adherent granuloma tissue - dry weight of string)/dry weight of string. An excerpt:
Sterile tared cotton string was surgically implanted (bilaterally) under the abdominal skin of ether anesthetized rats on day 1 of the study period, and then randomly placing rats in a group to be daily treated with saline, aspirin or the NSAID complexed with Phospholipon 90G over a two-week period.
At the completion of the study period the string with the adherent granuloma tissue was surgically dissected from the euthanized rats and dried in a vacuum for several days at room temperature, until a baseline dry weight was obtained. The difference between this value and the initial dry weight of the string prior to implantation divided by the latter value provided an estimate of the weight of granuloma tissue.

Data set [3] deals with Foreign-Body Granuloma Formation in Rats. Put plainly: Foreign-body granuloma formation in rats, low dose aspirin (9 mg/kg) alone or with phospholipid/neutral lipids. It is filed as in vivo. The following applies: aspirin 9 mg/kg intragastric twice a day, 5 doses, starting five days after implantation; (n); spread in next table row. From the text:
Sterile tared string was surgically implanted. Five days later rats were intragastrically administered twice a day with either saline, ASA alone, or ASA lipid mixtures.

Another data set has as its system Platelet Aggregation. Put plainly: Ristocetin platelet aggregation test. Format: cell-based.
Data set [4] concerns rats. Put plainly: Acute gastric lesions in rats after salicylate-based NSAID and 0.6 N HCl challenge. It is filed as in vivo, male Sprague Dawley rats. The following applies: intragastrically administered in association with DPPC versus without; rats challenged with 0.6N HCl; FIG. 4A. The protocol:
Ten minutes later, the rats were intragastrically challenged with 1 ml of 0.6 N HCI.
One of a number of NSAIDs was intragastrically administered to rats alone or preassociated with an equimolar concentration of DPPC or Phospholipon 90 G (purified soya lecithin, prepared by Nattermann GmbH of Cologne Germany) in several models of acute and chronic injury of the upper GI tract. Two contrasting animal models were employed to determine the ability of DPPC to protect against acute NSAID injury to the GI tract. For salicylate-based NSAIDs, which primarily induce stomach injury, gastric lesions were scored in fasted rats who were initially treated with aspirin or salicylate alone or complexed with DPPC and challenged 10 minutes later with a supra-physiological dose of HCl. For non-salicylate NSAIDs (indomethacin, diclofenac and naproxen) which predominantly induce injury to the mid-distal regions of the small intestine, the quantity of intraluminal blood was assessed in the distal half of the small intestine of rats who were pre- and post-treated with the Nitric Oxide synthetase inhibitor, L-NAME (N-nitro-L-arginine methyl ester).

Data set [5] relates to rats. Put plainly: Rat fever model (Brewer's yeast), antipyretic activity by rectal temperature. The conditions noted are these: for enhancement in anti-pyretic activity of the NSAID/DPPC complex compared to the NSAID alone: sodium salts complexed with equimolar DPPC, first three hours after intragastric administration. Format: in vivo. The protocol: Similar antipyretic analyses were performed with the sodium salts of the following NSAIDs: diclofenac (10 mg/kg), indomethacin (10 mg/kg) and naproxen (30 mg/kg), alone and complexed with an equimolar concentration of DPPC. All test solutions were titrated to a pH of 4.5 prior to intragastric administration. Rectal temperatures were monitored in conscious, restrained rats at all indicated times.
The ability of NSAIDs (administered alone and complexed with DPPC) to reduce fever in rats was determined.

Data set [6] is classed as physicochemical. The conditions noted are these: NSAID sodium salt 100mM, 25°C, neutral conditions, alone or sonicated with 0.5 mM DPPC or DPPG; the sodium-salicylate line is with DPPC; FIG. 3. Here is the method:
The diffusion of aspirin (alone and complexed with phospholipid) from water into cyclohexane was used as a model to estimate the membrane permeability of the drug.
The sodium salt of ASA (also salicylate) was dissolved in 5 ml of water at a final concentration of 100mM (pH adjusted to 6.0) and gently stirred at 25°C. An equal volume of cyclohexane was layered over the aqueous solution and the entry of the NSAID into the organic phase was monitored fluorometrically over time. In order to determine the effect of phospholipid association on the lipid permeability of the NSAID, ASA (or salicylate) at the above concentration was sonicated in the presence of 0.5 mM phospholipid (DPPC or DPPG) in water (adjusted to a pH of 7), and its rate of diffusion into the cyclohexane phase was measured fluorometrically. […] This entire process could be completed in < 30 seconds.

As to `CC(=O)Oc1ccccc1C(=O)O` [ASA, acetyl-salicylic acid], in the data set with rats [1], the “Gastric Mucosal Hydrophobicity (degrees, Contact Angle)” value is 15.8 ± 6.6^c(6) degrees. In addition, the Hematocrit in the data set with rats [1] is on record as 47.8 ± 0.2^c(10). Also, the “Granuloma Formation” value in data set [2] (ASA 90 mg/kg) is listed as 1.90 ± 0.10^b; in data set [2] (ASA 140 mg/kg), 1.07 ± 0.09^b. Besides, in data set [3], the “Foreign-Body Granuloma Formation” value was 3.89(8). In addition, the activity at 10 µM in the data set with Platelet Aggregation (read-out: % Platelet Aggregation, High Ristocetin (1.5 mg/ml) Test, ASA 0.01mM, DPPC equimolar where added) came out at 100%; with Platelet Aggregation (read-out: % Platelet Aggregation, Low Ristocetin (0.75) mg/ml Test, ASA 0.01mM, DPPC equimolar where added), 65%. The activity at 100 µM in the data set with Platelet Aggregation (read-out: % Platelet Aggregation, High Ristocetin (1.5 mg/ml) Test, ASA 0.1 mM, DPPC equimolar where added) was 83%; in the data set on Platelet Aggregation (read-out: % Platelet Aggregation, Low Ristocetin (0.75) mg/ml Test, ASA 0.1mM, DPPC equimolar where added), 26%. Further, the activity at 1000 µM in the data set with Platelet Aggregation (read-out: % Platelet Aggregation, High Ristocetin (1.5 mg/ml) Test, ASA 1.0 mM, DPPC equimolar where added) is 95%; with Platelet Aggregation (read-out: % Platelet Aggregation, High Ristocetin (1.5 mg/ml) Test, ASA 1.0 mM, second study, DPPC equimolar where added), 100%; in the data set with Platelet Aggregation (read-out: % Platelet Aggregation, Low Ristocetin (0.75) mg/ml Test, ASA 1.0mM, second study, DPPC equimolar where added) it was 39%; in the data set with Platelet Aggregation (read-out: % Platelet Aggregation, Low Ristocetin (0.75) mg/ml Test, ASA 1.0mm, DPPC equimolar where added), 80%. The “injurious potential to induce gastric lesions” value with rats [4] is “remarkably decreased”. The antipyretic activity result in the data set with rats [5] (ASA 4.5 mg/kg (subthreshold), alone or complexed with equimolar DPPC, FIG. 9) is on record as “no antipyretic activity alone”; in the data set on rats [5] (ASA 9.0 mg/kg (subthreshold), intragastric, alone or with equimolar phospholipid, FIG. 6 (five hour period) and FIG. 8), “does not have significant antipyretic activity”; in the data set on rats [5] (aspirin alone at doses of < 10 mg/kg, 4 hour study period, FIG. 7), “failed to reduce the fever”. Moreover, the “antipyretic activity after antisecretory pre-treatment” value in the data set on rats [5] (aspirin 20 mg/kg (FIG. 22: 18 mg/kg) in conjunction with proton pump inhibitor omeprazole (Prilosec), IP 150 mg/kg two hours before) was “failed to reduce fever”; in the data set on rats [5] (aspirin 20 mg/kg (FIG. 23: 18 mg/kg) in conjunction with Ranitidine (Zantac), IP 2 mg/kg 1 hour before), “failed to reduce fever”. The “passive diffusion (flux) from water into cyclohexane” value in data set [6] was “negligible”.

As to `CCCCCCCCCCCCCCCC(=O)OCC(COP(=O)([O-])OCC[N+](C)(C)C)OC(=O)CCCCCCCCCCCCCCC` (stereo not drawn) [DPPC, dipalmitoyl phosphatidylcholine], the activity at 1000 µM was determined as 100% in the data set with Platelet Aggregation (High Ristocetin (1.5 mg/ml) Test, ASA 0.00, DPPC alone at 1 mM, read-out: % Platelet Aggregation) and 94% with Platelet Aggregation (Low Ristocetin (0.75) mg/ml Test, ASA 0.00, DPPC alone at 1 mM, read-out: % Platelet Aggregation).

For `O=C(O)Cc1ccccc1Nc1c(Cl)cccc1Cl` [diclofenac, 2-(2,6-dichlorophenylamino)-phenylacetic acid], the “anti-pyretic activity with DPPC versus NSAID alone” value in the data set with rats [5] (diclofenac 10 mg/kg with DPPC, FIG. 20) is reported as “ability of DPPC to enhance the anti-pyretic activity”. Moreover, the “enhancement in anti-pyretic activity of the NSAID/DPPC complex compared to the NSAID alone” value in the data set on rats [5] was -0.29 °C.

`COc1ccc2c(c1)c(CC(=O)O)c(C)n2C(=O)c1ccc(Cl)cc1` [indomethacin, acetic acid]: the “anti-pyretic activity with DPPC versus NSAID alone” value in the data set on rats [5] (indomethacin 10 mg/kg with DPPC, FIG. 18) is recorded as “ability of DPPC to enhance the anti-pyretic activity of ASA was seen”. In addition, the “enhancement in anti-pyretic activity of the NSAID/DPPC complex compared to the NSAID alone” value in the data set with rats [5] was -0.28 °C.

On to `COc1ccc2cc([C@H](C)C(=O)O)ccc2c1` [naproxen, 2-(6-methoxy-2-naphthyl)-propinic acid], for which the “anti-pyretic activity with DPPC versus NSAID alone” value in the data set with rats [5] (naproxen 25 mg/kg dose with DPPC, FIG. 19) is recorded as “ability of DPPC to enhance the anti-pyretic activity”. In addition, the “enhancement in anti-pyretic activity of the NSAID/DPPC complex compared to the NSAID alone” value in the data set with rats [5] is -0.30 °C.

For the compound `O=C(O)c1ccccc1O` [salicylate, salicylic acid], the “injurious potential to induce gastric lesions” value in the data set with rats [4] was “remarkably decreased”. For the same compound, the “anti-pyretic activity with DPPC versus NSAID alone” value in the data set on rats [5] (salicylic acid 70 mg/kg dose with DPPC, FIG. 21) is “ability of DPPC to enhance the anti-pyretic activity”.
